Source: patent US9926275B2 (priority 2013, dated 2018)
Like-named read-outs stand apart in the source and are kept apart here.

Assays:
CB1 receptor [1] = biological target: T1, CB1 receptor (Homo sapiens, UniProt P21554); experiment: β-arrestin recruitment in CNR1 PathHunter cell line, allosteric modulation of CP55,940 response; format: cell-based; conditions: Table 1, CP55,940 as agonist
rats [2] = experiment: Light Dark Emergence (LDE) Test of anxiety; format: in vivo; conditions: 5 or 10 mg/kg, p>0.05
Experimental: (§1) GAT358 was assessed in two different behavioral tests, the Taste Reactivity (TR) Test and the Light Dark Emergence (LDE) Test. The TR Test is used to assess the possibility of a drug inducing nausea in rats as measured by conditioned gaping to infusion of a 0.01% saccharin solution previously paired with drug administration.
GAT358 was dissolved in a mixture of 4% DMSO, 1% Tween80, 1% Cremophor and 94% Saline (for doses of 5, 10 and 20 mg/kg) and injected at a volume of 3 ml/kg. Assessed was the vehicle (“Veh”), 10 and 20 mg/kg doses of GAT358 in the conditioned gaping model of nausea where rats are infused for 2 min with novel 0.01% saccharin followed immediately by an injection of the appropriate drug dose [Vehicle (n=6), GAT358-10 (n=8) and GAT358-20 (n=8)]. Seventy two hours following conditioning the rats were infused for 2 min with 0.01% saccharin during the drug free TR Test while their orofacial responses were videotaped for subsequent scoring. Further assessed was the Veh, 5 and 10 mg/kg of GAT358 in the LDE test [Veh (n=6), GAT358-5 (n=8) and GAT358-10 (n=8)]. […] The activity of the rat while in the LDE test for 5 min was tracked by Ethovision (Noldus Information Technology) and subsequently the duration of time spent in the open field and activity (distance travelled (cm)/amount of time(sec)) was analyzed. […]

rats [3] = format: in vivo
Experimental: as §1
GAT358 was dissolved in a mixture of 4% DMSO, 1% Tween80, 1% Cremophor and 94% Saline (for doses of 5, 10 and 20 mg/kg) and injected at a volume of 3 ml/kg. Assessed was the vehicle (“Veh”), 10 and 20 mg/kg doses of GAT358 in the conditioned gaping model of nausea where rats are infused for 2 min with novel 0.01% saccharin followed immediately by an injection of the appropriate drug dose [Vehicle (n=6), GAT358-10 (n=8) and GAT358-20 (n=8)]. Seventy two hours following conditioning the rats were infused for 2 min with 0.01% saccharin during the drug free TR Test while their orofacial responses were videotaped for subsequent scoring. Further assessed was the Veh, 5 and 10 mg/kg of GAT358 in the LDE test [Veh (n=6), GAT358-5 (n=8) and GAT358-10 (n=8)]. Group assignment was counterbalanced based upon previous drug experience. The rats were administered the appropriate drug dose 45 min prior to being placed in the enclosed dark chamber that allowed access to an open field area where the lighting was 100 lux. The activity of the rat while in the LDE test for 5 min was tracked by Ethovision (Noldus Information Technology) and subsequently the duration of time spent in the open field and activity (distance travelled (cm)/amount of time(sec)) was analyzed.
Results (all analyses were conducted using a one way ANOVA): […]

CB1 receptor [4] = biological target: T1, CB1 receptor; experiment: DiscoveRx HitHunter cAMP XS+ assay in cAMP Hunter cell line, allosteric modulation of CP55,940 response; format: cell-based; conditions: Table 1, preincubation with compound, then CP55,940 challenge, 20 μM forskolin

T1 sequence (P21554 whole entry): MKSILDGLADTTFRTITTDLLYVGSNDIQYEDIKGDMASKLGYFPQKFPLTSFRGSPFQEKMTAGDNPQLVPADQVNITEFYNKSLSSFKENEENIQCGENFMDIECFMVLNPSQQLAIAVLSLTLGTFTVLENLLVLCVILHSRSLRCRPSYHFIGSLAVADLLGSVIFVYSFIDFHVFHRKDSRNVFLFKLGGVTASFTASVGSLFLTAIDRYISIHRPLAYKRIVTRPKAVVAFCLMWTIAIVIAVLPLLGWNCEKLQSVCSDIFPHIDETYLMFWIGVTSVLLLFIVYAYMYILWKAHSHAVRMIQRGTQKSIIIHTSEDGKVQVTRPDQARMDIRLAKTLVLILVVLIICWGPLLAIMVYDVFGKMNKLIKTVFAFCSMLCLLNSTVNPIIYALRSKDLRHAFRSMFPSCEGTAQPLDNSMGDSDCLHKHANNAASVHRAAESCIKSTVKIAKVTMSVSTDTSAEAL

SMILES: O=c1c(Nc2ccc(Cl)cc2)c(Nc2cccc(-c3cccc(N4CCCC4)n3)c2)c1=O [Compound 38, 3-((4-Chlorophenyl)amino)-4-((3-(6-(pyrrolidin-1-yl)pyridin-2-yl)phenyl)amino)cyclobut-3-ene-1,2-dione]
- β-arrestin % inhibition (CB1 receptor [1]): 107%
- EC50 (CB1 receptor [1]; read-out: β-arrestin EC50): 111 nM
- time spent in the open field (rats [2]; 45 min before 5 min LDE test): did not significantly alter the time spent in the open field
- activity of rats during the 5 min in the LDE test (rats [2]; 45 min before test): did not significantly alter
- total activity of rats during the drug-free test with saccharin vs vehicle (rats [3]; 10 mg/kg, Bonferroni p=0.006): significantly lower than the rats in the vehicle group
- total activity of rats during the drug-free test with saccharin vs vehicle (rats [3]; 20 mg/kg, Bonferroni p=0.012): significantly lower than the rats in the vehicle group
- conditioned gaping responses vs vehicle (rats [3]; 10 and 20 mg/kg, drug-free TR test 72 h after conditioning, 2 min saccharin infusion, p>0.05): did not result in the expression of conditioned gaping or total aversive responses that differed significantly from the vehicle group
- total aversive responses (gaping, chin rubs and paw treads) vs vehicle (rats [3]; 10 and 20 mg/kg, drug-free TR test 72 h after conditioning, p>0.05): did not result in the expression of conditioned gaping or total aversive responses that differed significantly from the vehicle group
- conditional ingestive responding to saccharin infusion (rats [3]; 10 and 20 mg/kg, drug-free TR test, p>0.05): did not alter conditional ingestive responding to saccharin infusion
- cAMP % inhibition (CB1 receptor [4]): 16%
- EC50 (CB1 receptor [4]; read-out: cAMP EC50): > 10000 nM
